Assay results: patent US12331040B2 (Karyopharm Therapeutics Inc., priority 2013, dated 2025)
pIC50: −log10 of the molar value. Read-outs that look alike come from different tables or passages of the source.

Tests used:
Type in all cases: cell-based
DU-145 cells = assay: MTT cell proliferation assay; conditions: Homo sapiens
Experimental: (§1) The MTT cell proliferation assay was used to study the cytotoxic properties of the compounds. The assay was performed according to the method described by Roche Molecular Biochemicals, with minor modifications. The assay is based on the cleavage of the tetrazolium salt, MTT, in the presence of an electron-coupling reagent. The water-insoluble formazan salt produced must be solubilized in an additional step. Cells grown in a 96-well tissue culture plate were incubated with the MTT solution for approximately 4 hours. After this incubation period, a water-insoluble formazan dye formed. After solubilization, the formazan dye was quantitated using a scanning multi-well spectrophotometer (ELISA reader). […] The cells were seeded at 5,000-10,000 cells in each well of 96-well plate in 100 μL of fresh culture medium and were allowed to attach overnight. The stock solutions of the compounds were diluted in 100 μL cell culture medium to obtain eight concentrations of each test compound, ranging from 1 nM to 30 μM. […] All optical densities were measured at 490 nm using a Vmax Kinetic Microplate Reader (Molecular Devices). In most cases, the assay was performed in duplicate and the results were presented as a mean percent inhibition to the negative control±SE. The following formula was used to calculate the percent of inhibition: Inhibition (%)=(1−(ODo/OD))×100.
(§2) The M24 cell line is derived from human melanoma cells. The U2OS cell line is a human osteosarcoma cell line expressing wild type p53 and Rb, but lacking p16. The MM1S cell line is a multiple myeloma cell line; the parent cell line, MM.1, was established from peripheral blood of a multiple myeloma patient who had become resistant to steroid-based therapy. The RPMI8226 cell line is derived from human B lymphocyte cells. NHDF cells are normal human dermal fibroblast cells. The MRC-5 cell line is derived from normal lung tissue of a fetus. The PC3 cell line is a human prostate cancer cell line. The DU-145 cell line is a human prostate cancer cell line. The MDA-MB-231 cell line is a human breast adenocarcinoma cell line. The MDA-MB-468 cell line is a human breast carcinoma cell line. HL-60 cells are human promyelocytic leukemia cells. Hep G2 cells are human hepatocellular carcinoma cells. HEP 3B cells are human hepatocellular carcinoma cells. The DLD-1 cell line is a colorectal adenocarcinoma cell line. The HCT-15 cell line is a human colon carcinoma cell line. The Colo-205 cell line is derived from a human adenocarcinoma of the colon. The LoVo cell line is a human colon adenocarcinoma cell line.

MM1S cells = assay: MTT cell proliferation assay; conditions: Homo sapiens, MM1.S
Experimental: as §1, §2

LoVo cells = assay: MTT cell proliferation assay; conditions: Homo sapiens
Experimental: as §1, §2

HCT-15 cells = assay: MTT cell proliferation assay; conditions: Homo sapiens
Experimental: as §1, §2

Colo-205 cells = assay: MTT cell proliferation assay; conditions: Homo sapiens
Experimental: as §1, §2

DLD-1 cells = assay: MTT cell proliferation assay; conditions: Homo sapiens
Experimental: as §1, §2

MDA-MB-468 cells = assay: MTT cell proliferation assay; conditions: Homo sapiens
Experimental: as §1, §2

NHDF cells = assay: MTT cell proliferation assay; conditions: Homo sapiens
Experimental: as §1, §2

U2OS cells = assay: MTT cell proliferation assay; conditions: Homo sapiens
Experimental: as §1, §2

PC3 cells = assay: MTT cell proliferation assay; conditions: Homo sapiens, PC-3
Experimental: as §1, §2

[1] = MTT cell proliferation assay; conditions: human, MRC-5 cells (normal fetal lung cell line); MRC-5 cells; 72-hour MTT
Experimental: as §1, §2

MDA-MB-231 cells = assay: MTT cell proliferation assay; conditions: Homo sapiens
Experimental: as §1, §2

Z138 cells = assay: MTT cell proliferation assay; conditions: Homo sapiens
In short: (§3)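 5,000-10,000 cells/well, overnight attach; 8 conc., 1 nM–30 μM; MTT ~4 h; formazan solubilized, OD 490 nm; % inhibition = (1−(ODo/OD))×100 vs neg. control; mostly duplicate, mean±SE.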

3T3 cells = assay: MTT cell proliferation assay; conditions: Mus musculus
In short: as §3

MS751 cells = assay: MTT cell proliferation assay; conditions: Homo sapiens
In short: as §3

HT-29 cells = assay: MTT cell proliferation assay; conditions: Homo sapiens, 72-hour MTT
Experimental: as §1
Compounds 504, 510, 525 and 585 were further tested against selected solid and hematological cancer cell lines and selected normal cell lines in a 72-hour MTT cell proliferation assay.

M24 cells = assay: MTT cell proliferation assay; conditions: Homo sapiens
Experimental: as §1, §2

MRC-5 cells = assay: MTT cell proliferation assay; conditions: Homo sapiens, MRC5; MRC-5 cell line
Experimental: as §1, §2

[2] = DU-145 cells, 72-hour MTT, read-out: DU-145 MTT IC50
[3] = MM1S cells, 72-hour MTT, read-out: MM1S MTT IC50
[4] = LoVo cells, 72-hour MTT, read-out: LoVo MTT IC50
[5] = HCT-15 cells, 72-hour MTT, read-out: HCT-15 MTT IC50
[6] = Colo-205 cells, 72-hour MTT, read-out: Colo-205 MTT IC50
[7] = DLD-1 cells, 72-hour MTT, read-out: DLD-1 MTT IC50
[8] = MDA-MB-468 cells, 72-hour MTT, read-out: MDA-MB-468 MTT IC50
[9] = NHDF cells, 72-hour MTT, read-out: NHDF MTT IC50
[10] = U2OS cells, 72-hour MTT, read-out: U2OS MTT IC50
[11] = PC3 cells, 72-hour MTT, read-out: PC3 MTT IC50
[12] = MDA-MB-231 cells, 72-hour MTT, read-out: MDA-MB-231 MTT IC50
[13] = Z-138, 72 h, Z-138 cells, 72-hour MTT, read-out: Z-138 MTT IC50
[14] = Z-138, Z138 cells, approximately 64-72 hours incubation, read-out: MTT Assay IC50 Z-138
[15] = NIH3T3, 72-hour MTT, read-out: 3T3 MTT IC50
[16] = NIH3T3, approximately 64-72 hours incubation, read-out: MTT Assay IC50 3T3
[17] = MS751, 72 h, MS751 cells, 72-hour MTT, read-out: MS751 MTT IC50
[18] = MS751, MS751 cells, approximately 64-72 hours incubation, read-out: MTT Assay IC50 MS-751
[19] = M24 cell line, read-out: MTT Assay IC50, M24
[20] = M24 cells, 72-hour MTT, read-out: M24 MTT IC50
[21] = DU-145 cell line, read-out: MTT Assay IC50, DU-145
[22] = MM1S cell line, read-out: MTT Assay IC50, MM1S
[23] = LoVo cell line, read-out: MTT Assay IC50, LoVo
[24] = HCT-15 cell line, read-out: MTT Assay IC50, HCT-15
[25] = Colo-205 cell line, read-out: MTT Assay IC50, Colo-205
[26] = DLD-1 cell line, read-out: MTT Assay IC50, DLD-1
[27] = MDA-MB-468 cell line, read-out: MTT Assay IC50, MDA-MB-468
[28] = NHDF cell line, read-out: MTT Assay IC50, NHDF
[29] = U2OS cell line, read-out: MTT Assay IC50, U2OS
[30] = MDA-MB-231 cell line, read-out: MTT Assay IC50, MDA-MB-231

Compound	pIC50 (DU-145 cells; [2])	pIC50 (MM1S cells; [3])	pIC50 (LoVo cells; [4])	pIC50 (HCT-15 cells; [5])	pIC50 (Colo-205 cells; [6])	pIC50 (DLD-1 cells; [7])	pIC50 (MDA-MB-468 cells; [8])	pIC50 (NHDF cells; [9])	pIC50 (U2OS cells; [10])	pIC50 (PC3 cells; [11])	IC50 at 72 h [1] [nM]	pIC50 (MDA-MB-231 cells; [12])	pIC50 (Z138 cells; [13])	pIC50 (Z138 cells; [14])	pIC50 (3T3 cells; [15])	pIC50 (3T3 cells; [16])	pIC50 (MS751 cells; [17])	pIC50 (MS751 cells; [18])	pIC50 (HT-29 cells)	pIC50 (M24 cells; [19])	other results
Nc1ccc(/C=C/C(=O)NCc2cc3cc(-c4ccc(C(=O)N5CCC(F)(F)CC5)cn4)cc(C(F)(F)F)c3o2)cn1 [Compound 585, (E)-3-(6-aminopyridin-3-yl)-N-((5-(5-(4,4-difluoropiperidine-1-carbonyl)pyridin-2-yl)-7-(trifluoromethyl)benzofuran-2-yl)methyl)acrylamide]	5.31	7.05	6.59	6.57	6.77	6.03	6.70	5.24	7.22	6.85	130	5.95	7.70	> 7.00	< 5.00	< 5.00	7.00	> 7.00			
Nc1ccc(/C=C/C(=O)NCc2cc3cc(-c4ccc(S(=O)(=O)N5CCOCC5)cc4)cc(Cl)c3o2)cn1 [Compound 504, (E)-3-(6-Aminopyridin-3-yl)-N-((7-chloro-5-(4-(morpholinosulfonyl)phenyl)benzofuran-2-yl)methyl)acrylamide]	7.10	6.54	6.74	7.10	7.10	6.96	6.00	7.22	7.40	7.30	20	6.66	8.00	> 7.00	6.46	5.30 to 7.00	7.52	> 7.00	6.32	5.30 to 7.00	pIC50 (M24 cells; [20]): 7.30; pIC50 (DU-145 cells; [21]): > 7.00; pIC50 (MM1S cells; [22]): 5.30 to 7.00; pIC50 (LoVo cells; [23]): 5.30 to 7.00; pIC50 (HCT-15 cells; [24]): > 7.00; pIC50 (Colo-205 cells; [25]): > 7.00; pIC50 (DLD-1 cells; [26]): 5.30 to 7.00; pIC50 (MDA-MB-468 cells; [27]): 5.30 to 7.00; pIC50 (NHDF cells; [28]): > 7.00; pIC50 (U2OS cells; [29]): > 7.00; pIC50 (MRC-5 cells): > 7.00; pIC50 (PC3 cells; PC3 cell line, read-out: MTT Assay IC50, PC3): > 7.00; pIC50 (MDA-MB-231 cells; [30]): 5.30 to 7.00
Nc1ccc(/C=C/C(=O)NCc2cc3cc(-c4ccc(C(=O)N5CCOCC5)cc4)cc(C(F)(F)F)c3o2)cn1 [Compound 510, (E)-3-(6-aminopyridin-3-yl)-N-((5-(4-(morpholine-4-carbonyl)phenyl)-7-(trifluoromethyl)benzofuran-2-yl)methyl)acrylamide]	5.83	7.05	6.64	5.90	6.80	6.02	7.52	7.10	8.10	7.70	50	5.85	7.00	> 7.00	< 5.00	< 5.00	7.00	5.30 to 7.00	5.03	5.30 to 7.00	pIC50 (M24 cells; [20]): 6.54; pIC50 (DU-145 cells; [21]): 5.30 to 7.00; pIC50 (MM1S cells; [22]): > 7.00; pIC50 (LoVo cells; [23]): 5.30 to 7.00; pIC50 (HCT-15 cells; [24]): 5.30 to 7.00; pIC50 (Colo-205 cells; [25]): 5.30 to 7.00; pIC50 (DLD-1 cells; [26]): 5.30 to 7.00; pIC50 (MDA-MB-468 cells; [27]): > 7.00; pIC50 (NHDF cells; [28]): > 7.00; pIC50 (U2OS cells; [29]): > 7.00; pIC50 (MRC-5 cells): > 7.00; pIC50 (MDA-MB-231 cells; [30]): 5.30 to 7.00
